Read-outs that look alike come from different tables or passages of the source.
What was measured:
[1] = Test B: Cytotoxicity Assay; format: cell-based; conditions: human, uninfected MT-4 cells, CellTiter-Glo
Protocol: Test B: Cytotoxicity Assay Compound cytotoxicity and the corresponding CC50 values was determined using the same protocol as described in the antiviral assay (Test A) except that uninfected cells were used.

HIV-IIIb = test: Test A: Antiviral Assay in MT4 Cells; format: cell-based, HIV-1; conditions: for inhibition at 2 µM: 2 μM drug concentration, read-out: Response at 2 μM (percent inhibition of virus-induced cell killing)
Protocol: Test A: Antiviral Assay in MT4 Cells
MT-4 cells were next mixed with HIV-IIIb at an m.o.i of 0.003 for 1 hour, after which time 35 μL of virus/cell mixture (2000 cells) was immediately added to each well containing 40 μL of diluted compound. The plates were then incubated at 37° C. for 5 days. After 5 days of incubation, 25 μl of 2× concentrated CellTiter-Glo™ Reagent (catalog #G7571, Promega Biosciences, Inc., Madison, Wis.) was added to each well containing MT-4 cells. Cell lysis was carried out by incubating at room temperature for 10 min and then chemiluminescence was read.

[2] = Human immunodeficiency virus 1, IIIB, MT4, 120 h, read-out: % inhibition at 0.2 μM (percent inhibition of virus-induced cell killing)
[3] = Human immunodeficiency virus 1, MT4, 120 h, 0.2 μM drug concentration, MT-4 cells infected with HIV-IIIb, 5 days, values normalized to 100%, average over time, read-out: % inhibition at 0.2 μM (percent inhibition of virus-induced cell killing)
[4] = Human immunodeficiency virus 1, IIIB, MT4, 0.2 μM drug concentration, comparison with previously published compounds, read-out: Response at 0.2 μM (percent inhibition of virus-induced cell killing)
[5] = Human immunodeficiency virus 1, IIIB, MT4, comparison with previously published compounds

Row | SMILES | CC50 at 5 days [1] [µM] | inhibition at 0.2 µM (HIV-IIIb; [2]) [%] | inhibition at 0.2 µM (HIV-IIIb; [3]) [%] | inhibition at 0.2 µM (HIV-IIIb; [4]) [%] | inhibition at 2 µM (HIV-IIIb; [5]) [%]
1 | Cn1nc(NS(C)(=O)=O)c2c(Cl)ccc(-c3ccc(C#CC4(C)OCCn5ccnc54)nc3[C@H](Cc3cc(F)cc(F)c3)NC(=O)Cn3nc(C(F)(F)F)c4c3C(F)(F)[C@@H]3C[C@H]43)c21 (some centres unmarked) [Compound 81E] | > 57 | 87 | – | – | –
2 | Cn1cnc(C#Cc2ccc(-c3ccc(Cl)c4c(NS(C)(=O)=O)nn(C)c34)c([C@H](Cc3cc(F)cc(F)c3)NC(=O)Cn3nc(C(F)(F)F)c4c3C(F)(F)[C@@H]3C[C@H]43)n2)c1 [Compound 67, N—((S)-1-(3-(4-chloro-1-methyl-3-(methylsulfonamido)-1H-indazol-7-yl)-6-((1-methyl-1H-imidazol-4-yl)ethynyl)pyridin-2-yl)-2-(3,5-difluorophenyl)ethyl)-2-((3bS,4aR)-5,5-difluoro-3-(trifluoromethyl)-3b,4,4a,5-tetrahydro-1H-cyclopropa[3,4]cyclopenta[1,2-c]pyrazol-1-yl)acetamide] | > 53.2 | – | 87 | – | –
3 | Cn1nc(NS(C)(=O)=O)c2c(Cl)ccc(-c3ccc(C#CC(C)(O)Cn4cncn4)nc3[C@H](Cc3cc(F)cc(F)c3)NC(=O)Cn3nc(C(F)(F)F)c4c3C(F)(F)[C@@H]3C[C@H]43)c21 (stereo partly drawn) [Compound 70B, N-((1S)-1-(3-(4-chloro-1-methyl-3-(methylsulfonamido)-1H-indazol-7-yl)-6-(3-hydroxy-3-methyl-4-(1H-1,2,4-triazol-1-yl)but-1-yn-1-yl)pyridin-2-yl)-2-(3,5-difluorophenyl)ethyl)-2-((3bS,4aR)-5,5-difluoro-3-(trifluoromethyl)-3b,4,4a,5-tetrahydro-1H-cyclopropa[3,4]cyclopenta[1,2-c]pyrazol-1-yl)acetamide] | 14.2 | – | 96 | – | –
4 | Cn1nc(NS(C)(=O)=O)c2c(Cl)ccc(-c3ccc(C#CC4(O)CCOCC4)nc3[C@H](Cc3cc(F)cc(F)c3)NC(=O)Cn3nc(C(F)(F)F)c4c3C(F)(F)[C@@H]3C[C@H]43)c21 [Compound 39, N—((S)-1-(3-(4-chloro-1-methyl-3-(methylsulfonamido)-1H-indazol-7-yl)-6-((4-hydroxytetrahydro-2H-pyran-4-yl)ethynyl)pyridin-2-yl)-2-(3,5-difluorophenyl)ethyl)-2-((3bS,4aR)-5,5-difluoro-3-(trifluoromethyl)-3b,4,4a,5-tetrahydro-1H-cyclopropa[3,4]cyclopenta[1,2-c]pyrazol-1-yl)acetamide] | 10.7 | – | 95 | – | –
5 | Cn1nc(NS(C)(=O)=O)c2c(Cl)ccc(-c3ccc(C#CC4(O)CC5(COC5)C4)nc3[C@H](Cc3cc(F)cc(F)c3)NC(=O)Cn3nc(C(F)(F)F)c4c3C(F)(F)[C@@H]3C[C@H]43)c21 [Compound 51B, N—((S)-1-(3-(4-chloro-1-methyl-3-(methylsulfonamido)-1H-indazol-7-yl)-6-((6-hydroxy-2-oxaspiro[3.3]heptan-6-yl)ethynyl)pyridin-2-yl)-2-(3,5-difluorophenyl)ethyl)-2-((3bS,4aR)-5,5-difluoro-3-(trifluoromethyl)-3b,4,4a,5-tetrahydro-1H-cyclopropa[3,4]cyclopenta[1,2-c]pyrazol-1-yl)acetamide] | 19.8 | – | 89 | – | –
6 | Cn1nc(NS(C)(=O)=O)c2c(Cl)ccc(-c3ccc(C#CC(C)(C)c4ncc[nH]4)nc3[C@H](Cc3cc(F)cc(F)c3)NC(=O)Cn3nc(C(F)F)c4c3C(F)(F)[C@@H]3C[C@H]43)c21 [Compound 91F, N—((S)-1-(6-(3-(1H-imidazol-2-yl)-3-methylbut-1-yn-1-yl)-3-(4-chloro-1-methyl-3-(methylsulfonamido)-1H-indazol-7-yl)pyridin-2-yl)-2-(3,5-difluorophenyl)ethyl)-2-((3bS,4aR)-3-(difluoromethyl)-5,5-difluoro-3b,4,4a,5-tetrahydro-1H-cyclopropa[3,4]cyclopenta[1,2-c]pyrazol-1-yl)acetamide] | 14.6 | – | 98 | – | –
7 | Cn1nc(NS(C)(=O)=O)c2c(Cl)ccc(-c3ccc(C#CC(C)(O)C4CC4)nc3[C@H](Cc3cc(F)cc(F)c3)NC(=O)Cn3nc(C(F)(F)F)c4c3C(F)(F)[C@@H]3C[C@H]43)c21 (stereo partly drawn) [Compound 59, N-((1S)-1-(3-(4-chloro-1-methyl-3-(methylsulfonamido)-1H-indazol-7-yl)-6-(3-cyclopropyl-3-hydroxybut-1-yn-1-yl)pyridin-2-yl)-2-(3,5-difluorophenyl)ethyl)-2-((3bS,4aR)-5,5-difluoro-3-(trifluoromethyl)-3b,4,4a,5-tetrahydro-1H-cyclopropa[3,4]cyclopenta[1,2-c]pyrazol-1-yl)acetamide] | 10.2 | – | 95 | – | –
8 | Cn1nc(NS(C)(=O)=O)c2c(Cl)ccc(-c3ccc(-c4cnn(C5CCOCC5)c4)nc3[C@H](Cc3cc(F)cc(F)c3)NC(=O)Cn3nc(C(F)(F)F)c4c3C(F)(F)[C@@H]3C[C@H]43)c21 [Compound 71, N—((S)-1-(3-(4-chloro-1-methyl-3-(methylsulfonamido)-1H-indazol-7-yl)-6-(1-(tetrahydro-2H-pyran-4-yl)-1H-pyrazol-4-yl)pyridin-2-yl)-2-(3,5-difluorophenyl)ethyl)-2-((3bS,4aR)-5,5-difluoro-3-(trifluoromethyl)-3b,4,4a,5-tetrahydro-1H-cyclopropa[3,4]cyclopenta[1,2-c]pyrazol-1-yl)acetamide] | > 53.2 | – | 97 | – | –
9 | Cn1nc(NS(C)(=O)=O)c2c(Cl)ccc(-c3ccc(C#CC4CNCCO4)nc3[C@H](Cc3cc(F)cc(F)c3)NC(=O)Cn3nc(C(F)(F)F)c4c3C(F)(F)[C@@H]3C[C@H]43)c21 (stereo partly drawn) [Compound 53B, N-((1S)-1-(3-(4-chloro-1-methyl-3-(methylsulfonamido)-1H-indazol-7-yl)-6-(morpholin-2-ylethynyl)pyridin-2-yl)-2-(3,5-difluorophenyl)ethyl)-2-((3bS,4aR)-5,5-difluoro-3-(trifluoromethyl)-3b,4,4a,5-tetrahydro-1H-cyclopropa[3,4]cyclopenta[1,2-c]pyrazol-1-yl)acetamide] | 6.81 | – | 100 | – | –
10 | Cn1nc(NS(C)(=O)=O)c2c(Cl)ccc(-c3ccc(C#CC4(O)CCNC4)nc3[C@H](Cc3cc(F)cc(F)c3)NC(=O)Cn3nc(C(F)(F)F)c4c3C(F)(F)[C@@H]3C[C@H]43)c21 (stereo partly drawn) [Compound 58, N-((1S)-1-(3-(4-chloro-1-methyl-3-(methylsulfonamido)-1H-indazol-7-yl)-6-((3-hydroxypyrrolidin-3-yl)ethynyl)pyridin-2-yl)-2-(3,5-difluorophenyl)ethyl)-2-((3bS,4aR)-5,5-difluoro-3-(trifluoromethyl)-3b,4,4a,5-tetrahydro-1H-cyclopropa[3,4]cyclopenta[1,2-c]pyrazol-1-yl)acetamide] | 5.19 | – | 91 | – | –
11 | Cn1nc(NS(C)(=O)=O)c2c(Cl)ccc(-c3ccc(C#CC4(O)CCOC4)nc3[C@H](Cc3cc(F)cc(F)c3)NC(=O)Cn3nc(C(F)(F)F)c4c3C(F)(F)[C@@H]3C[C@H]43)c21 (stereo partly drawn) [Compound 46, N-((1S)-1-(3-(4-chloro-1-methyl-3-(methylsulfonamido)-1H-indazol-7-yl)-6-((3-hydroxytetrahydrofuran-3-yl)ethynyl)pyridin-2-yl)-2-(3,5-difluorophenyl)ethyl)-2-((3bS,4aR)-5,5-difluoro-3-(trifluoromethyl)-3b,4,4a,5-tetrahydro-1H-cyclopropa[3,4]cyclopenta[1,2-c]pyrazol-1-yl)acetamide] | 17.6 | – | 96 | – | –
12 | O=C(Cn1nc(C(F)F)c2c1C(F)(F)CCC2(F)F)N[C@@H](Cc1cc(F)cc(F)c1)c1nc(C#Cc2ccc3[nH]c(=O)ccc3c2)ccc1-c1cnc2[nH]ccc2c1 [Compound 5, (S)-2-(3-(difluoromethyl)-4,4,7,7-tetrafluoro-4,5,6,7-tetrahydro-1H-indazol-1-yl)-N-(2-(3,5-difluorophenyl)-1-(6-((2-oxo-1,2-dihydroquinolin-6-yl)ethynyl)-3-(1H-pyrrolo[2,3-b]pyridin-5-yl)pyridin-2-yl)ethyl)acetamide] | > 53.2 | – | 5 | – | –
13 | CC(C)(O)C#Cc1ccc(-c2ccc(F)c(C(N)=O)c2)c([C@H](Cc2cc(F)cc(F)c2)NC(=O)Cn2nc(C(F)(F)F)c3c2C(F)(F)[C@@H]2C[C@H]32)n1 [Compound 18, reference compound] | – | – | – | 96 | 96
14 | Cn1nc(NS(C)(=O)=O)c2c(Cl)ccc(-c3ccc(C#CC4(O)CC(F)(F)C4)nc3[C@H](Cc3cc(F)cc(F)c3)NC(=O)Cn3nc(C(F)F)c4c3C(F)(F)[C@@H]3C[C@H]43)c21 [Compound 95E, N—((S)-1-(3-(4-chloro-1-methyl-3-(methylsulfonamido)-1H-indazol-7-yl)-6-((3,3-difluoro-1-hydroxycyclobutyl)ethynyl)pyridin-2-yl)-2-(3,5-difluorophenyl)ethyl)-2-((3bS,4aR)-3-(difluoromethyl)-5,5-difluoro-3b,4,4a,5-tetrahydro-1H-cyclopropa[3,4]cyclopenta[1,2-c]pyrazol-1-yl)acetamide] | – | 96 | – | – | –
15 | O=C(Cc1c[nH]c2ccc(O)cc12)N[C@@H](Cc1cc(F)cc(F)c1)c1ncccc1C#CC1CC1 [Compound 53, reference compound] | – | – | – | 0 | 33
